Source: PMC10709440, “High-throughput ligand profile characterization in novel cell lines expressing seven heterologous insect olfactory receptors for the detection of volatile plant biomarkers” (Scientific Reports, 2023)
Like-named read-outs stand apart in the source and are kept apart here.

Legend:
[1] = test system: OR71a; set-up: method as in earlier work; conditions: DoOR database value, ref DoOR, cited from earlier work
[2] = target: T1, Drosophila OR85b (Drosophila melanogaster, UniProt Q9VHQ7); assay: cell-based; set-up: GCaMP6 calcium fluorescence in stable HEK293 OR+ORCO lines; peak dF normalised to 50 uM VUAA1 (=1); conditions: relative to 50 uM VUAA1 response, below 0.05 set to 0; for activity at 1 µM / activity at 100 µM / activity at 10 µM: HEK293, read-out: % activation; for % activation: agonist
T1 construct: expressed in transfected cells
T1 sequence (Q9VHQ7 1-390): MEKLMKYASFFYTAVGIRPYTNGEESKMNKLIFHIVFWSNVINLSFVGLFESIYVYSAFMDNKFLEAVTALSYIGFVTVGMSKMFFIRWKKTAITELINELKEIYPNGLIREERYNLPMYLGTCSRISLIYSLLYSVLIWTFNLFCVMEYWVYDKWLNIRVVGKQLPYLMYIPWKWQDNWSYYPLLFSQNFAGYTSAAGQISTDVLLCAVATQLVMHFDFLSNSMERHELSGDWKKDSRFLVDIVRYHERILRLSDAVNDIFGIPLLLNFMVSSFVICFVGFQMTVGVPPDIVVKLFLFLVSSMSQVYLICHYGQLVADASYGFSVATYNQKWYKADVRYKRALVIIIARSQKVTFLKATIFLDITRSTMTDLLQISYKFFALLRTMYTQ
T1 sequence (Q9VNB5 1-486 partner): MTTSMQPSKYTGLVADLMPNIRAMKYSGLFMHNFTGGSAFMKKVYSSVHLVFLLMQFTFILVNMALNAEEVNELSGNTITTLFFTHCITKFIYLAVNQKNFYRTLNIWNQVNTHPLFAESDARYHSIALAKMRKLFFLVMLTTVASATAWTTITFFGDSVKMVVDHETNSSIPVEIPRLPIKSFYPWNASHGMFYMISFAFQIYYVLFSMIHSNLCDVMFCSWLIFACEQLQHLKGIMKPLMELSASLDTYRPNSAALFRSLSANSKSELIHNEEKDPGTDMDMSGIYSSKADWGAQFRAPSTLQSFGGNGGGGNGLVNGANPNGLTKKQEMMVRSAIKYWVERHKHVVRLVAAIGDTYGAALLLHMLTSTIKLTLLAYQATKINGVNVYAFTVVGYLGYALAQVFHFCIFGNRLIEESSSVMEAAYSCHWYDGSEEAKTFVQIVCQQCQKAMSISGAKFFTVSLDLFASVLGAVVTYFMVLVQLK
Method: (§1) Twelve thousand to 18,000 cells were plated into each well of a black wall, transparent bottom 384-well microplate (Greiner) 48 h or 72 h before the measurements and were simultaneously treated with 1 μg/mL doxycycline. […] The plate has 24 columns, thus we could record responses in up to eight different cell lines in each plate. On the day of the experiment, the growth medium was replaced with 20 µL assay buffer/well (140 mM NaCl, 5 mM KCl, 2 mM CaCl2, 1 mM MgCl2, 5 mM HEPES-Na, 20 mM glucose, pH 7.3, 340 mOsm). […] Baseline fluorescence (F0) was recorded for 5 s, after which 7 µL VOC buffer (140 mM NaCl, 5 mM KCl, 2 mM CaCl2, 1 mM MgCl2, 5 mM HEPES-Na, 31 mM glucose, 0.1% DMSO, pH 7.3, 340 mOsm) was injected into each well in one row and the fluorescence response was recorded for an additional 30 s, at a rate of one read/sec. VOC solutions (VOC buffer with 4× concentration of the final measured VOC concentration, 9 µL/well was injected) were measured on the same wells in a second round with the same protocol. Each individual concentration of a specific VOC sample was recorded in three wells for the same cell line on the same microplate. The raw data were exported in xls file format, F0 and FMAX values, and the fluorescence intensity changes (∆F) were calculated in Excel (Microsoft) (Supplementary file Data summary.xlsx) using the following equation: ΔF=FMAX-F0/F0 (see also Fig. 1C). On each plate, we recorded the response of each cell line to 50 µM VUAA1. The average of these ∆F values of each cell line were used to calculate the VUAA1-normalized values for the rest of the plate, by dividing VOC response ∆F values by the average VUAA1 response ∆F value of the corresponding OR cell line. Each VOC-OR combination was measured three times as tec The recorded FMAX, F0, ∆F, VUAA1-normalized ∆F values, as well as the OR name, the name of the tested sample, and the final concentration for each well were copied into supplementary file Data summary.xlsx, that was used to summarize all the plates recorded. Here, the averages of the measurements were calculated for each receptor-VOC-concentration combination. […] Each VOC was measured at 1, 10, and 100 µM final concentration on each receptor. VUAA1-normalized response was calculated as described in methods.

[3] = target: T2, Drosophila OR49b (Drosophila melanogaster, UniProt Q9V6H2); assay: cell-based; set-up: GCaMP6 calcium fluorescence in stable HEK293 OR+ORCO lines; peak dF normalised to 50 uM VUAA1 (=1); conditions: HEK293; relative to 50 uM VUAA1 response; below 0.05 set to 0; read-out: % activation
T2 construct: expressed in transfected cells
T2 sequence (Q9V6H2 1-375): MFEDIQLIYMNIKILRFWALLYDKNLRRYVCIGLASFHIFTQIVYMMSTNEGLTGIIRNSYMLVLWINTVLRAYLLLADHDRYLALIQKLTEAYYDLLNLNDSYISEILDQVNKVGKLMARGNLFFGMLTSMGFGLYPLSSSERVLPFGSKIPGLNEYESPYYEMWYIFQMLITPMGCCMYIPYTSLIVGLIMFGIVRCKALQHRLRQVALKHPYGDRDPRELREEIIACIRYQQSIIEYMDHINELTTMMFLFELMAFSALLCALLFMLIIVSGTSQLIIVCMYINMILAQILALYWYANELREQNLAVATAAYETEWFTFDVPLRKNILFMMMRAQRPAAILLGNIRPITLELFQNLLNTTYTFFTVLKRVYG
T2 sequence (Q9VNB5 1-486 partner): T1 sequence (Q9VNB5 1-486 partner)
Method: as §1

[4] = target: T3, Drosophila OR10a (Drosophila melanogaster, UniProt Q9VYZ1); assay: cell-based; set-up: GCaMP6 calcium fluorescence in stable HEK293 OR+ORCO lines; peak dF normalised to 50 uM VUAA1 (=1); conditions: relative to 50 uM VUAA1 response, below 0.05 set to 0; for activity at 1 µM / activity at 10 µM / activity at 100 µM: HEK293, read-out: % activation; for % activation: agonist
T3 construct: expressed in transfected cells
T3 sequence (Q9VYZ1 1-406): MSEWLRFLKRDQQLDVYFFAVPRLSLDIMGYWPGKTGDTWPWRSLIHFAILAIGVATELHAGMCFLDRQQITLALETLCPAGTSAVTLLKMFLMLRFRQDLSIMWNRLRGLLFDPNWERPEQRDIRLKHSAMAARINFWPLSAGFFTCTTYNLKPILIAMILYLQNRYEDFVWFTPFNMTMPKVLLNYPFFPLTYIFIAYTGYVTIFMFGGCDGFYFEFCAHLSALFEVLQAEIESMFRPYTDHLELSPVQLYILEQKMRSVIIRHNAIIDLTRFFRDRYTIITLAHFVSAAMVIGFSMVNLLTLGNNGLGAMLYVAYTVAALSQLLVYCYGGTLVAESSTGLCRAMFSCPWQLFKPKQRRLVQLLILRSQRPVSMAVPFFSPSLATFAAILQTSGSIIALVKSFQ
T3 sequence (Q9VNB5 1-486 partner): T1 sequence (Q9VNB5 1-486 partner)
Method: as §1

For `CC(C)=CCC/C(C)=C/CC/C(C)=C/CO` [e,e-farnesol], the “OR71a DoOR response” value [1] is listed as 0.11.

In the case of `CC(=O)OCCC(C)C` [isopentyl acetate], the “OR71a DoOR response” value [1] is listed as 0.03.

For `Cc1ccc(O)cc1` [4-methylphenol], the “OR71a DoOR response” value [1] is listed as 0.64.

`C=C1CCC2(C(C)C)CC12` (centres unmarked) [sabinene] gave an activity at 1 µM [2] of 6.47% and an activity at 100 µM [2] of 8.7%.

For `COC(=O)c1ccccc1` [methyl benzoate], the activity at 1 µM [3] is given as 13.4% and the “OR71a DoOR response” value ([1]; OR71a) is given as 0.28.

For `CCCCCC(C)=O` [2-heptanone], the “OR71a DoOR response” value [1] is listed as 0.045.

Compound `C=C1[C@H]2CC[C@@H]3[C@H]2C(C)(C)CCC[C@]13C` [(+)-longifolene] has an activity at 1 µM [2] of 8.34%, an activity at 10 µM [2] of 10.9% and an activity at 100 µM [2] of 0%. For the same compound, the activity at 1 µM [4] was 8.31%, the activity at 10 µM [4] was 5.37% and the activity at 100 µM [4] was 0%. The activity at 1 µM [3] was 7.75%, the activity at 10 µM [3] was 0% and the activity at 100 µM [3] was 0%.

`CCCCCCCCCCCCCC` [tetradecane] showed an activity at 1 µM [2] of 9.72%, an activity at 10 µM [2] of 8.44% and an activity at 1 µM [3] of 6.86%. For the same compound, the activity at 10 µM [3] was 5.2%.

Work on `CC1=CCC[C@@]2(C)[C@@H]3CC[C@]12CC3(C)C` [(−)-α-neoclovene] yielded an activity at 10 µM [4] of 13.1% and an activity at 100 µM [4] of 12.4%.

In the case of `CCCOC(C)=O` [propyl acetate], the activity at 1 µM [2] is given as 5.38% and the “OR71a DoOR response” value ([1]; OR71a) is given as 0.04.

With `Cc1ccc(C)cc1` [p-xylene] the activity at 10 µM [2] was 15.2% and the activity at 100 µM [2] was 6.07%.

In the case of `CCCCCC(O)CC` (centres unmarked) [3-octanol], the “OR71a DoOR response” value [1] is listed as 0.01.

In the case of `CC1=CCC2CC1C2(C)C` (stereo not drawn) [alpha-pinene], the “OR71a DoOR response” value [1] is given as 0.04.

In the case of `CCCCCC(=O)CC` [3-octanone], the “OR71a DoOR response” value [1] is given as 0.016.

`C=CC(C)(O)CCC=C(C)C` (centres unmarked) [linalool] gave an activity at 100 µM [2] of 6.3%.

`OCCc1ccccc1` [phenethyl alcohol] showed an activity at 1 µM [2] of 9.88%, an activity at 10 µM [2] of 7.58% and an activity at 100 µM [3] of 9.32%. The “OR71a DoOR response” value ([1]; OR71a) was 0.17.

In the case of `CC(=O)c1ccccc1` [acetophenone], the “OR71a DoOR response” value [1] is given as 0.05.

For `O=Cc1ccccc1` [benzaldehyde], the “OR71a DoOR response” value [1] is listed as 0.025.

For `CC1=CC[C@@H](C(C)(C)O)CC1` [alpha-terpineol], the “OR71a DoOR response” value [1] is listed as 0.008.

For `Cc1ccccc1C` [o-xylene], the activity at 1 µM [2] was 8.04% and the activity at 100 µM [2] was 8.27%.

`C=C1CC[C@@]23C[C@@H]1C(C)(C)[C@@H]2CC[C@H]3C` [(+)-beta-cedrene] gave an activity at 1 µM [2] of 0%, an activity at 10 µM [2] of 0% and an activity at 100 µM [2] of 0%. For the same compound, the activity at 1 µM [4] was 0%, the activity at 10 µM [4] was 0% and the activity at 100 µM [4] was 0%. It also gave an activity at 1 µM [3] of 0%, an activity at 10 µM [3] of 0% and an activity at 100 µM [3] of 0%.

`CC/C=C\CCOC(C)=O` [Z-3-hexenyl acetate] gave an activity at 1 µM [2] of 14.5%.

In the case of `CCOC(=O)c1ccccc1` [ethyl benzoate], the “OR71a DoOR response” value [1] is listed as 0.19.

With `C=C(C)C1CCC2(C)OC2C1` (single isomer, unassigned; (+)) [(+)-limonene oxide] the activity at 1 µM [2] was 0%, the activity at 10 µM [2] was 0% and the activity at 100 µM [2] was 0%. The activity at 1 µM [4] was 0%, the activity at 10 µM [4] was 0% and the activity at 100 µM [4] was 0%. It also gave an activity at 1 µM [3] of 0%, an activity at 10 µM [3] of 0% and an activity at 100 µM [3] of 0%.

In the case of `C=CC(O)CCCCC` (centres unmarked) [1-octen-3-ol], the “OR71a DoOR response” value [1] is listed as 0.09.

For `C=CCc1ccc(O)c(OC)c1` [eugenol], the “OR71a DoOR response” value [1] is listed as 0.73.

For `CCCC(=O)OCC` [ethyl butyrate], the “OR71a DoOR response” value [1] is given as 0.046.

With `C=C(C)[C@H]1CC=C(C)CC1` [(R)-(+)-limonene] the “% activation” value ([2]; 10 µM, 10 / OR85b) was 0%, the “% activation” value ([2]; 100 µM, 100 / OR85b) was 0% and the “% activation” value ([2]; 1 / OR85b, 1 µM) was 0%. For the same compound, the activity at 1 µM [4] was 0%, the “% activation” value ([4]; 10 µM, 10 / OR10a) was 0.1196% and the activity at 1 µM [3] was 0%. For the same compound, the activity at 10 µM [3] was 0% and the activity at 100 µM [3] was 0%.

With `C=C(C)[C@H]1CC=C(C)CC1` [limonene] the “% activation” value ([2]; 10 µM, 10 / OR85b) was 0.08814%, the “% activation” value ([2]; 100 µM, 100 / OR85b) was 0.06443% and the “% activation” value ([2]; 1 / OR85b, 1 µM) was 0.07022%. The “% activation” value ([4]; 10 µM, 10 / OR10a) was 0% and the “% activation” value ([4]; 100 µM, 100 / OR10a) was 0.05729%.

For `Cc1ccc(C(C)C)cc1` [p-cymene], the activity at 10 µM [2] is listed as 11.7%, the activity at 100 µM [2] is listed as 9.05% and the “OR71a DoOR response” value ([1]; OR71a) is listed as 0.063.

In the case of `CCCCCOC(C)=O` [pentyl acetate], the activity at 1 µM [3] is reported as 7.95% and the activity at 100 µM [3] is reported as 6.1%.

Work on `Cc1cccc(C)c1` [m-xylene] yielded an activity at 100 µM [2] of 8.8%.

In the case of `COC(=O)c1ccccc1O` [methyl salicylate], the “OR71a DoOR response” value ([1]; OR71a) is given as 0.47.
